Data taken from article PMC8074792, “An ω-3, but Not an ω-6 Polyunsaturated Fatty Acid Decreases Membrane Dipole Potential and Stimulates Endo-Lysosomal Escape of Penetratin” (Frontiers in Cell and Developmental Biology, 2021).

Tests used:
[1] = test system: JY cells; test: Penetratin uptake and endo-lysosomal escape, time-correlated flow cytometry; format: cell-based, human; conditions: 50 μM fatty acid 48 h, 5 μM AFDye532- and 5 μM NF-penetratin, 37°C, compared at 900 s, n = 5
From the text: (§1) Penetratin ([…]-amide, molecular weight 2245.75 g/mol) was synthesized manually on TentaGel R RAM (Rapp Polymere, Tübingen, Germany), a low crosslinked polystyrene PEG copolymer resin by the solid-phase method of Merrifield with standard Fmoc chemistry, as described in detail in our recent study ([Batta et al., 2020]). After coupling the last arginine, one half of the penetratin was reacted with AFDye532 N-hydroxysuccinimide ester (molecular weight 723.77 g/mol, Fluoroprobes, Scottsdale, AZ, United States), while the other half with 5(6)-carboxynaphthofluorescein N-succinimidyl ester (molecular weight 573.51 g/mol, Darmstadt, Germany). Completion of the coupling was assessed by Kaiser test, which was followed by deprotection and release from the resin. After filtration and precipitation with cold diethyl ether, the crude products were purified by preparative reversed-phase HPLC (JASCO, Victoria, BC, Canada) on a C18 column and lyophilized. The purity of the products (>95%) was assessed by reversed-phase HPLC (JASCO) equipped with an analytical C18 column. […] These values well correlated with the predicted masses of the labeled peptides (2983.59 and 2833.33, respectively).
(§2) Total cellular penetratin uptake and endo-lysosomal escape was determined as described previously ([Batta et al., 2020]). Briefly, control THP-1 or JY cells and those treated with 50 μM ALA, GLA or SA for 48 h at 37°C were incubated in the continuous presence of 5 μM AFDye532-penetratin, 5 μM NF-penetratin and 0.25 μg/ml DAPI at 37°C in the thermostated sample holder of a FACS Aria III flow cytometer. The fluorescence intensity of DAPI was measured using an excitation at 405 nm and an emission filter 450/20 nm. AFDye532 and NF were excited at 488 and 561 nm, respectively, and their fluorescence was determined using emission filters 530/30 and 670/14 nm, respectively. Measurements started immediately after addition of DAPI and penetratin and continued for 20 min at 37°C. Experimental data were analyzed first in FCS Express. Time-correlated fluorescence intensity values of DAPI-negative living cells were exported after spectral compensation and the moving averages of samples were calculated with a window size of 10 s. […] During analysis, fluorescence intensity values were first normalized to the average intensity in the first time window, which was followed by calculation of the fluorescence ratio from the normalized values.

[2] = test system: THP-1 cells; test: as above; format: cell-based, human; conditions: 50 μM fatty acid 48 h, 5 μM AFDye532- and 5 μM NF-penetratin, 37°C, compared at 900 s, n = 5
From the text: as §1, §2

[3] = test system: JY cells; test: Membrane dipole potential, F66 emission ratio, flow cytometry; format: cell-based, human; conditions: 50 μM fatty acid 48 h, then 50 or 200 μM cholesterol 1 h, n = 5
Method: (§3) The human acute monocytic leukemia-derived cell line THP-1 and the human Epstein-Barr virus (EBV) transformed lymphoblastoid cell line JY were obtained from the American Type Culture Collection (Manassas, VA, United States) and cultivated according to their specifications. […] As controls, cells were treated with the corresponding amounts of native MβCD complexes not containing sterols. To study the effects of fatty acids, cells were incubated for 48 h in medium supplemented with saturated stearic acid (SA, Sigma Aldrich), ω-3 polyunsaturated α-linolenic acid (ALA, Sigma Aldrich) or ω-6 polyunsaturated γ-linolenic acid (GLA, Sigma Aldrich) at various concentrations ranging from 12.5 to 50 μM. […] After washing, the fluorescence intensities of cells were determined with a FACS Aria III flow cytometer (Becton Dickinson, Mountain View, CA, United States) at 37°C. […] Data analysis was carried out in FCS Express (De Novo Software, Los Angeles, CA, United States). The ratio of emitted intensities in the two wavelength ranges (N^∗/T^∗) was determined for each cell and the average value was calculated for each sample from the data of living cells gated on FSC-SSC dot plots. The value of N^∗/T^∗ ratio negatively correlates with the magnitude of DP ([Kovacs et al., 2017]).

[4] = test system: THP-1 cells; test: as above; format: cell-based, human; conditions: n = 5; for effect of fatty acid pretreatment on cholesterol-induced DP elevation (Rem, F66): 50 μM fatty acid 48 h, then 50 or 200 μM cholesterol 1 h; for Rem, F66: fatty acid 12.5-50 μM for 48 h
Method: as §3

[5] = test system: JY cells; test: Membrane fluidity, TMA-DPH fluorescence anisotropy; format: cell-based, human; conditions: 200 μM sterol 1 h or 50 μM fatty acid 48 h, 37°C, n = 6, vs control
Method: (§4) 4′-(trimethylammonio)-diphenylhexatriene (TMA-DPH) was purchased from Sigma-Aldrich, dissolved in tetrahydrofuran and used for determination of membrane fluidity as described previously ([Batta et al., 2018]). […] Fluorescence intensities were measured without washing using a Fluorolog-3 spectrofluorometer (Horiba Jobin Yvon, Edison, NJ, United States) with the temperature of the cuvette holder adjusted to 37°C by a circulating water bath. The fluorescence anisotropy (r) of TMA-DPH was determined in the L-format after excitation at 352 nm and measurement of fluorescence intensities at 430 nm according to the formula: […]

[6] = test system: THP-1 cells; test: Membrane fluidity, TMA-DPH fluorescence anisotropy; format: cell-based, human; conditions: 200 μM sterol 1 h or 50 μM fatty acid 48 h, 37°C, n = 6, vs control
Method: as §4

[7] = test system: JY cells; conditions: 50 μM fatty acid 48 h, LysoTracker Deep Red and 10 µM PY3174 2 h at 37°C, extent similar to cell membrane
Method: (§5) Measurement of hydration of lysosomal membranes with fluorescence microscopy […]
(§6) The PY3174 fluorophore capable of providing information about the hydration of the cell membrane […]
(§7) via an emission ratiometric fluorescence microscopy assay was a kind gift from Leslie M. Loew […]
(§8) (University of Connecticut, CT) (1). For these measurements, cells were placed onto an 8-well […]
(§9) chambered coverglass and labeled with 100 nM LysoTracker Deep Red (Thermo Fisher Scientific, […]
(§10) Waltham, MA) for visualization of lysosomes and 10 µM PY3174 for 2 hours at 37°C to stimulate the […]
(§11) endocytosis of the environment-sensitive fluorophore. After staining, images were taken at the […]
(§12) midplane of cells using an LSM880 confocal laser-scanning microscope (Carl Zeiss AG, Jena, […]
(§13) Germany). PY3174 was excited at 488 nm and emitted intensities were measured in two wavelength […]
(§14) ranges between 500 and 540 nm (Iblue) and 650 and 735 nm (Ired), while LysoTracker Deep Red was […]
(§15) excited at 633 nm and emission was detected between 650 and 735 nm. During processing, pixels […]
(§16) corresponding to lysosomal membranes were identified based on the intensity of LysoTracker Deep […]
(§17) Red using a custom-written algorithm under MATLAB. The average value of generalized polarization […]
(§18) (GP) correlating with the degree of membrane hydration (1) was calculated from the data of lysosomal […]
(§19) membrane pixels after background subtraction using […]
(§20) (1 picture or pasted object on this page, not shown here)

[8] = test system: THP-1 cells; conditions: 50 μM fatty acid 48 h, LysoTracker Deep Red and 10 µM PY3174 2 h at 37°C, extent similar to cell membrane
Method: as §5, §6, §7, §8, §9, §10, §11, §12, §13, §14, §15, §16, §17, §18, §19, §20

Compound: CC/C=C\C/C=C\C/C=C\CCCCCCCC(=O)O [ALA, α-linolenic acid]
- ratio of NF and AFDye532 intensities (endo-lysosomal escape of penetratin) vs controls [1]: significantly increased
- ratio of NF and AFDye532 intensities (endo-lysosomal escape of penetratin) vs controls [2]: significantly increased
- effect of fatty acid pretreatment on cholesterol-induced DP elevation (Rem, F66) [3]: significantly decreased the DP-elevating effect of cholesterol
- effect of fatty acid pretreatment on cholesterol-induced DP elevation (Rem, F66) [4]: significantly decreased the DP-elevating effect of cholesterol
- Rem, F66 [4]: dose-dependently and significantly increased
- TMA-DPH fluorescence anisotropy (inversely correlates with membrane fluidity) [5]: significantly decreased
- TMA-DPH fluorescence anisotropy (inversely correlates with membrane fluidity) [6]: significantly decreased
- generalized polarization of PY3174 in the lysosomal membranes [7]: decreased
- generalized polarization of PY3174 in the lysosomal membranes [8]: decreased

Compound: CCCCC/C=C\C/C=C\C/C=C\CCCCC(=O)O [GLA, γ-linolenic acid]
- ratio of NF and AFDye532 intensities (endo-lysosomal escape of penetratin) vs controls [1]: no significant changes
- ratio of NF and AFDye532 intensities (endo-lysosomal escape of penetratin) vs controls [2]: no significant changes
- effect of fatty acid pretreatment on cholesterol-induced DP elevation (Rem, F66) [3]: a tendency to augment the cholesterol-induced DP changes
- effect of fatty acid pretreatment on cholesterol-induced DP elevation (Rem, F66) [4]: a tendency to augment the cholesterol-induced DP changes
- Rem, F66 [4]: opposite changes
- TMA-DPH fluorescence anisotropy (inversely correlates with membrane fluidity) [5]: did not reach statistical significance
- TMA-DPH fluorescence anisotropy (inversely correlates with membrane fluidity) [6]: did not reach statistical significance
- generalized polarization of PY3174 in the lysosomal membranes [7]: decreased
- generalized polarization of PY3174 in the lysosomal membranes [8]: decreased
